The values below are quoted from earlier work in PMC8508678, “Novel P2X7 Antagonist Ameliorates the Early Phase of ALS Disease and Decreases Inflammation and Autophagy in SOD1-G93A Mouse Model” (International Journal of Molecular Sciences, 2021).

Where two headings read alike, the source gives them in different places.

In series [1] the test system is SOD1-G93A mice. More on the design: key to NF-κB / NOX2 / P2X7 / ARG1 / CD68 / GFAP / LC3B-II: The symbol ↑ refers to upregulation; ↓ to downregulation; = indicates no change with respect to the vehicle-treated SOD1-G93A mice.
Series [2] relates to SOD1-G93A mice. Set-up: key to Motor behavior / Survival: The symbol ↑ refers to upregulation; ↓ to downregulation; = indicates no change with respect to the vehicle-treated SOD1-G93A mice.
For series [3], the system named is SOD1-G93A mice. Set-up: key to Motor Neuron loss: The symbol ↑ refers to upregulation; ↓ to downregulation; = indicates no change with respect to the vehicle-treated SOD1-G93A mice.
Setting [4] is: SOD1-G93A mice, vs vehicle ref 31.
[5] abbreviates: SOD1-G93A mice, vs vehicle ref 28, 29.
[6] abbreviates: ALS mice, four times per week starting at post-natal day 60 ref 41.

On to `C[C@H](N=C(NC#N)Nc1cccc2ncccc12)c1ccccc1` [A804598], for which, in the series on SOD1-G93A mice [1] (SOD1-G93A mice ref 31), the “P2X7 expression levels in the spinal cord” value was “failed to affect”; the “autophagic substrate p62 accumulating in vivo” value is “decreases”; the “motor neuron loss or astrogliosis and microgliosis in the spinal cord” value is reported as “neither A804598 nor AXX13 treatments affected”. Moreover, in the series with SOD1-G93A mice [1] (setting [4]), the ARG1 entry was “=”, the CD68 entry is “=”, the GFAP result is reported as “=” and the LC3B-II result is reported as “=”. In the series on SOD1-G93A mice [1] (setting [4]), the NF-κB result is “=”, the NOX2 entry was “=” and the P2X7 entry was “=”. Further, the “IL-1β mRNA expression” value in the series with SOD1-G93A mice [1] (SOD1-G93A mice, only this inflammatory marker affected ref 31) is “downregulated”. The “amelioration of disease progression” value in the series with SOD1-G93A mice [2] (SOD1-G93A mice ref 31) was “failed”. In the series on SOD1-G93A mice [2] (setting [4]), the Motor behavior entry is recorded as “=” and the Survival entry is listed as “=”. For the same compound, in the series on SOD1-G93A mice [3] (setting [4]), the “Motor Neuron loss” value is listed as “=”.
As to `CCOc1ccc(Nc2ccc(/C(=C3C=C/C(=[N+](/CC)Cc4cccc(S(=O)(=O)[O-])c4)C=C/3C)c3ccc(N(CC)Cc4cccc(S(=O)(=O)O)c4)cc3C)cc2)cc1` [BBG, brilliant blue G], the microgliosis entry in the series with SOD1-G93A mice [1] (SOD1-G93A mice ref 29) is “reduces”. In addition, in the series on SOD1-G93A mice [1] (setting [5]), the GFAP entry is on record as “=” and the P2X7 entry is given as “=”. Moreover, the disease onset result in the series on SOD1-G93A mice [2] (ALS mice, modest improvement in general conditions and motor performance ref 29) was “induces a delay of disease onset”. Moreover, the Survival entry in the series with SOD1-G93A mice [2] (setting [5]) is recorded as “=”. The “motor neuron survival in the lumbar spinal cord” value in the series on SOD1-G93A mice [3] (SOD1-G93A mice ref 29) is reported as “enhances”.
As for `O=C(NCC1(N2CCN(c3ccccc3)CC2)CCOCC1)c1cccnc1Sc1ccccc1` [JNJ-47965567], in the series with SOD1-G93A mice [2] (setting [6]), the “disease onset, body weight loss and motor parameters” value is “able to delay disease onset, reduce body weight loss, and improve the motor parameters”; the “survival or motor neuron number” value was “without affecting”. Besides, in the series on SOD1-G93A mice [2] (SOD1-G93A mice, three times per week from the early symptomatic phase ref 32), the “survival, disease progression, molecular and cellular parameters of ALS” value was “totally failed”.
